What all share (type): cell-based
The subject of assay [1] is virus HIV 1. Nature of the assay: Protocol 1: pre-treatment of human lymphocytes before HIV 1 infection, reverse transcriptase activity in culture supernatant. As for the experimental part: (§1) Pour chacun des trois protocoles qui suivent, on a préparé une solution mère de (5-amino-2-(4-méthyl-1-pipéridinyl)phényl)-(4-chlorophényl)-méthanone à 100 mg/l dans de l'eau physiologique contenant 9 g/l de chlorure de sodium et acidifiée à pH=3 par de l'acide chlorhydrique. La solution mère est ensuite diluée dans un milieu RPMI 1640 jusqu'à la concentration désirée. La solution ainsi obtenue est stérilisée par filtration sur membrane "MILLIPORE" ayant un diamètre moyen de pores de 0,22 m.
(§2) A partir de cellules T lymphoblastoïdes (lignée CEM) infectées par un virus HIV et donc susceptibles de produire ledit virus HIV, on recueille ce dernier par des moyens appropriés à partir d'un surnageant de culture desdites cellules.
(§3) Les cellules utilisées sont des lymphocytes de sujets normaux HIV négatifs isolés à partir du sang périphérique par gradient de Ficoll puis stimulés pendant trois jours par de la phytohémagglutinine p (en abrégé pHAp) avant leur utilisation.
Les lymphocytes sont ensuite cultivés dans le milieu RPMI 1640 contenant 10 % de sérum de veau foetal, 10 % d'interleukine II, 2 g/ml de polybrène, 1 % de glutamine, 1 % d'antibiotiques et une dilution au 1/2500 de sérum anti-interféron humain. […]

Assay [2] has as its system virus HIV 1. Nature of the assay: Protocol 2: treatment of human lymphocytes during HIV 1 adsorption, reverse transcriptase activity in culture supernatant. As for the experimental part:
as §1, §2, §3
(§4) Les lymphocytes sont ensuite cultivés dans le milieu RPMI 1640 contenant 10 % de sérum de veau foetal, 10 % d'interleukine II, 2 g/ml de polybrène, 1 % de glutamine, 1 % d'antibiotiques et une dilution au 1/2500 de sérum anti-interféron humain.
(§5) La production du virus HIV par des cellules T humaines traitées ou non par le produit a été régulièrement suivie par mesure de l'activité transcriptase inverse, représentative de la réplication virale, et présente dans 1 ml de surnageant de culture. On concentre 100 fois 1 ml de surnageant par ultracentrifugation puis on détermine l'activité enzymatique de cet échantillon dans 50 l d'un mélange réactionnel contenant 50 mM de tampon tris (hydroxyméthylaminométhane) de pH=7,9, 20 mM de KCl, 5 mM de MgCl₂, 1 mM de 1,4-dithiothréitol, 0,05 unité de densité optique par ml d'acide polyadénylique (5′), 0,05 unité de densité optique par ml d'acide oligodéoxythymidylique 12-18, 5 Ci de ³HTTP et 0,1 % de Triton X 100. Après une heure d'incubation à 37°C, les produits acido-insolubles sont précipités par de l'acide trichloracétique à 20 %, filtrés sur "MILLIPORE" 0,45 m, puis la radioactivité contenue dans ces produits de réaction est mesurée à l'aide d'un compteur à scintillation Kontron.
(§6) Les figures 1 à 3 qui représentent l'activité transcriptase inverse (A exprimée en cpm/ml) en fonction du temps (t exprimé en nombre de jours), comprennent chacune quatre courbes : T représentant l'activité transcriptase inverse dans la culture témoin. C₁ représentant l'activité transcriptase inverse pour la culture traitée par une dose de 0,1 g/ml de produit. C₂ représentant l'activité transcriptase inverse pour la culture traitée par une dose de 0,05 g/ml de produit, et C₃ représentant l'activité transcriptase inverse pour la culture traitée par une dose de 0,01 g/ml de produit. […]

For assay [3], the system named is virus HIV 1. Nature of the assay: Protocol 3: treatment of human lymphocytes after HIV 1 adsorption (post-treatment), reverse transcriptase activity in culture supernatant. As for the experimental part:
as §1, §2, §3, §4, §5, §6

In the case of `CC1CCN(c2ccc(N)cc2C(=O)c2ccc(Cl)cc2)CC1` [produit, (5-amino-2-(4-méthyl-1-pipéridinyl)phényl)-(4-chlorophényl)-méthanone], the “inhibition du pouvoir infectieux du virus HIV 1 (activité transcriptase inverse)” value with virus HIV 1 [1] (pre-treatment 18 h before infection, human lymphocytes, whatever the dose (0,1, 0,05, 0,01 µg/ml), figure 1) is recorded as “inhibition partielle”. In addition, the “retard dans l'apparition du pic de transcriptase inverse” value in the assay with virus HIV 1 [1] (pre-treatment, whatever the dose, versus untreated control culture) is “retard important”. Besides, the “inhibition du pouvoir infectieux du virus HIV 1” value in the assay with virus HIV 1 [2] (during viral adsorption, 0,1 µg/ml (curve C1)) is listed as “maximale”; in the assay on virus HIV 1 [2] (during viral adsorption, 0,01 µg/ml (curve C3)) it was “partielle”; with virus HIV 1 [2] (during viral adsorption, 0,05 µg/ml (curve C2)) it was “partielle”. Besides, the “inhibition du pouvoir infectieux du virus HIV 1 pour les cellules T humaines” value with virus HIV 1 [2] (product present during viral adsorption (1 h, 37°C), various concentrations (curves C1 to C3), figure 2) is “inhibition très significative”. Besides, the “inhibition de l'infection virale” value was “très significative” in the assay on virus HIV 1 [3] (post-treatment for three passages after adsorption, 0,1 µg/ml (curve C1), figure 3); “partielle” in the assay with virus HIV 1 [3] (post-treatment, 0,01 µg/ml (curve C3)); “partielle” in the assay on virus HIV 1 [3] (post-treatment, 0,05 µg/ml (curve C2)). Further, the “rapport des pics des courbes T et C₁ (activité transcriptase inverse)” value with virus HIV 1 [3] (post-treatment, 0,1 g/ml, control peak / treated peak) is on record as about 10.

Values taken from patent EP0307279A2, “Use of (5-amino-2-(4-methyl-1-piperidinyl)phenyl)-(4-chlorophenyl)methanone as an antiviral agent” (FOURNIER INNOVATION ET SYNERGIE, priority 1987, dated 1989).
